# According to patent US7906514B1, “Animal model and compounds identified via this model for treatment of chronic pain” (Trustees of Dartmouth College, priority 1999, dated 2011):
# Columns and labels:
# [1] = tested on: rat model for lower back pain (L5 spinal root loosely ligated with chromic gut); assay: Mechanical sensitivity (allodynia) testing with von Frey filaments after L5 spinal root injury; assay type: in vivo
# Description: (§1) The first phase of the study investigated three combinations of treatments: 1) Group A—methotrexate administration locally (intrathecally) to the surgical area immediately following surgery, followed by additional methotrexate administration locally at days 2 and 4 post-surgery; 2) Group B—saline administration locally to the surgical area immediately following surgery and at days 2 and 4 post-surgery; and 3) Group C—sham-operated animals that received methotrexate at the same time points. In all animals, gait disturbance and mechanical allodynia were assessed until animals were euthanized 7 days after surgery.
# In the second phase of the study, animals were assessed out to day 14 post-surgery and given additional treatments as follows: 1) Group D—surgically prepared, saline treated rats were then given methotrexate locally during the second week of the study on days 7, 9, and 11 post-surgery; 2) Group E—surgically prepared, saline treated rats were then given saline locally during the second week on days 7, 9, and 11 post-surgery; and 3) Group F—surgically prepared, methotrexate treated rats were then given saline during the second week on days 7, 9, and 11 post-surgery. Gait disturbance and mechanical allodynia were assessed before surgery and at days 2, 4, 7, 9, 11, and 14 until euthanization.
# (§2) Male Holtzman rats (200-250 g) were used. All surgical procedures were performed under inhalation anesthesia (induced at 4% and maintained at 2% halothane in 100% O2). Spinal root, dorsal root ganglia, and the adjacent dura mater on the left side at L5 were carefully exposed by hemilaminectomy using a surgical microscope. Five 0.3 cm pieces of 4-0 chromic gut ligature were laid adjacent to the root and secured by two loose ligatures of 5-0 chromic gut. The muscle layers and incision were closed with 3-0 silk suture and staples, respectively.
# For phase I, three combinations of treatments were investigated. Methotrexate was reconstituted to 10 mg/ml in saline and pH adjusted to 7.4. Group A represented root injury plus methotrexate treatment. Immediately following surgery and prior to incision closure, Group A rats received 1 mg/kg of methotrexate (volume 100 ul/kg) by injecting through a PE-10 catheter through an incision in the exposed dura mater to a position 3 cm central to the incision. The PE-10 catheter was pulled out and the same dose and volume of methotrexate (1 mg/kg) was administered around the injured nerve roots (total dose 2 mg/kg). The wound was closed. On days 2 and 4 post-surgery, under inhalation anesthesia, methotrexate was again administered by opening the surgical wound and repeating delivery of methotrexate as before.
# Group C animals represented sham-operated plus methotrexate treatment. In these animals, the L5 nerve roots were exposed but not injured. Methotrexate was administered using the same dose, protocol, and time points as Group A.
# For phase II of the study, the protocol was extended to day 14 with the surgery, delivery method, volume and doses being identical to those of the phase I study. Rats were divided into 3 groups. Group D represented saline plus methotrexate treatment. Saline was administered at the time of surgery and at days 2 and 4 post-surgery. Methotrexate was administered in the second week at days 7, 9 and 11 post-surgery.
# Group F represented methotrexate plus saline treatment. In these rats, methotrexate was administered during surgery and at days 2 and 4 post-surgery. Saline was then administered on days 7, 9, and 11 post-surgery. Gait disturbance and mechanical allodynia were also assessed in these animals at days 2, 4, 7, 9, 11 and 14 (day of euthanization).
# Animals were tested for 3 days pre-operatively to acclimate to the testing apparatus and the experimenter, and to obtain baseline values. All testing was performed by experimenters blinded to the treatments.
# [2] = tested on: rat model for lower back pain (L5 spinal root loosely ligated with chromic gut); assay: Gait disturbance and hind paw inversion testing after L5 spinal root injury; assay type: in vivo; conditions: phase I
# Description: as §1, with “surgery. […]” for “surgery.”
# as §2
# For phase I, three combinations of treatments were investigated. Methotrexate was reconstituted to 10 mg/ml in saline and pH adjusted to 7.4. Group A represented root injury plus methotrexate treatment. […]
# [3] = tested on: rat model for lower back pain (L5 spinal root loosely ligated with chromic gut); assay: Gross pathological inspection of injured nerve roots following euthanasia; assay type: in vivo; conditions: methotrexate-treated groups (A, D and F) compared to saline-treated groups (B and E)
# Protocol: In all groups except the sham-operated animals (Group C), the treated nerve roots were encapsulated with dense granulation tissue and fibrous adhesions.
# as §2
# For phase I, three combinations of treatments were investigated. Methotrexate was reconstituted to 10 mg/ml in saline and pH adjusted to 7.4. Group A represented root injury plus methotrexate treatment. Immediately following surgery and prior to incision closure, Group A rats received 1 mg/kg of methotrexate (volume 100 ul/kg) by injecting through a PE-10 catheter through an incision in the exposed dura mater to a position 3 cm central to the incision. […]
# Group F represented methotrexate plus saline treatment. […] Gait disturbance and mechanical allodynia were also assessed in these animals at days 2, 4, 7, 9, 11 and 14 (day of euthanization).
# [4] = tested on: OX-42 and GFAP (glial fibrillary acidic protein); assay: Immunohistochemical analysis of spinal glial activation; assay type: in vivo, rat; conditions: methotrexate-treated groups vs saline-treated groups; L5 spinal cord sections
# Protocol: All animals were perfusion fixed for immunohistochemistry. Under deep anesthesia (sodium pentobarbital, 50 mg/kg intraperitoneally) rats were euthanized by transcardiac perfusion. Rats were then perfused with 300 ml phosphate buffered saline (PBS) followed by 500 ml 4% paraformaldehyde in 0.1 M PBS. Following perfusion and laminectomy, the lesioned L5 roots were verified and traced to their site of entry into the spinal cord. Appropriate L5 spinal cord segments were harvested and post fixed for 4 hours in fixative and then cryoprotected 2-3 days in 30% sucrose/PBS at 4° C. The segments were then freeze-mounted in OCT embedding medium on cork blocks for cryostat sectioning.
# Optimal dilutions and incubation time periods for each antibody and lot were determined prior to the study. Immunohistochemistry was performed with the avidin-biotin technique on free-floating 20 μm sections. Elimination of the primary antibody was performed in each run as a negative control. Monoclonal antibody OX-42 (labeling the complement receptor-3, CDllb) was used as a microglial marker at a dilution of […]. A rabbit polyclonal antibody to glial fibrillary protein (anti-GFAP, DAKO, Carpintra, Calif.) was used as an astrocytic marker at a dilution of 1:20,000. Five or more sections per animal were prepared from the L5 segments in each run. […]
# [5] = dose without acute neurotoxic effects; Morris et al. 1992; cited from earlier work
smiles,measurement,setting,value
"CN(Cc1cnc2nc(N)nc(N)c2n1)c1ccc(C(=O)N[C@@H](CCC(=O)O)C(=O)O)cc1 [methotrexate, Methotrexate]","mechanical allodynia, overall conclusion","[1]; lower back pain model with radiculopathy, local administration",significantly attenuates
same,mechanical allodynia,"[1]; phase I, Group A (injury+methotrexate at surgery, days 2 and 4), toward baseline after peak at day 2, to day 7",significantly reduced
same,mechanical allodynia response after surgery,"[1]; phase I, Group C (sham-operated+methotrexate)",minimal (minimal (0-5))
same,mechanical allodynia during the second week,"[1]; phase II, Group D (saline in week 1, methotrexate on days 7, 9, 11), existing allodynia, Group E (saline) persisted",significantly decreased
same,allodynia at day 7 post-surgery,"[1]; phase II, Group F (methotrexate at surgery, days 2 and 4) compared to Groups D and E",significantly attenuated
same,allodynic response during the second week,"[1]; phase II, Group F compared to Group E",significantly lower
same,postoperative changes in hind paw inversion or gait disturbance,"[2]; Group A (injury+methotrexate, 1 mg/kg intrathecal + 1 mg/kg perineural at surgery, days 2 and 4) vs Group B (saline)",no significant difference
same,hind paw inversion or gait disturbance,"[2]; Group C, sham-operated + methotrexate at surgery, days 2 and 4",did not demonstrate any hind paw inversion or gait disturbance
same,granulation and adhesion around the injured nerve roots,[3],markedly decreased
same,"level of glial activation (OX-42, GFAP)",[4],significant difference
same,administered dose (1 mg/kg) as fraction of the maximally tolerated dose for rats,[5],one quarter
